Results reported in the supplement of paper PMC11061612.

What was measured:
EW-3 (Ewing's Sarcoma) [1] = assay: Bliss excess, mean over the matrix (fraction); higher = more synergy
How it was run: (§1)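 Cell lines grown in DMEM/F12 or RPMI with 10% FBS were plated in 1536-well plates and held 24 hours at 37°C, 5% CO2 before 72 hours of exposure to two-drug dose matrices, with DMSO typically at 0.2%. CellTiter-Glo 2.0 luminescence gave viability, which was converted to inhibition. Vehicle wells were set to 0 and blank wells to 1. Combination Emax is the second-highest inhibition in the matrix, and Bliss excess is the observed combination effect minus the expected EA + EB − EA·EB, where EA and EB are the single-agent effects.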

GI-1 (Glioblastoma) [2] = assay: as above
How it was run: as §1

[3] = system: H-EMC-SS (Chondrosarcoma); assay: as above
How it was run: as §1

[4] = system: HSC-2 (Oral Cavity Carcinoma); assay: as above
How it was run: as §1

[5] = system: JHH-7 (Hepatocellular Carcinoma); assay: as above
How it was run: as §1

[6] = system: KINGS-1 (Low Grade Glioma); assay: as above
How it was run: as §1

[7] = system: LC4-1 (B-Lymphoblastic Leukemia); assay: as above
How it was run: as §1

NB7 (Neuroblastoma) [8] = assay: as above
How it was run: as §1

[9] = system: NCI-N87 (Gastric Carcinoma); assay: as above
How it was run: as §1

[10] = system: OCUB-M (Breast Carcinoma); assay: as above
How it was run: as §1

[11] = system: OCUM-1 (Gastric Carcinoma); assay: as above
How it was run: as §1

[12] = system: SCC-9 (Oral Cavity Carcinoma); assay: as above
How it was run: as §1

[13] = system: SNU-C1 (Colorectal Carcinoma); assay: as above
How it was run: as §1

[14] = system: TGBC11TKB (Gastric Carcinoma); assay: as above
How it was run: as §1

[15] = system: VMRC-LCD (Lung Adenocarcinoma); assay: as above
How it was run: as §1

EW-3 (Ewing's Sarcoma) [16] = assay: combination Emax (second highest fraction inhibited in the dose matrix, 72 h); higher = more inhibition; extreme values may be limits of the assay
How it was run: as §1

GI-1 (Glioblastoma) [17] = assay: as above
How it was run: as §1

[18] = system: H-EMC-SS (Chondrosarcoma); assay: as above
How it was run: as §1

[19] = system: HSC-2 (Oral Cavity Carcinoma); assay: as above
How it was run: as §1

[20] = system: JHH-7 (Hepatocellular Carcinoma); assay: as above
How it was run: as §1

[21] = system: KINGS-1 (Low Grade Glioma); assay: as above
How it was run: as §1

[22] = system: LC4-1 (B-Lymphoblastic Leukemia); assay: as above
How it was run: as §1

NB7 (Neuroblastoma) [23] = assay: as above
How it was run: as §1

[24] = system: NCI-N87 (Gastric Carcinoma); assay: as above
How it was run: as §1

[25] = system: OCUB-M (Breast Carcinoma); assay: as above
How it was run: as §1

[26] = system: OCUM-1 (Gastric Carcinoma); assay: as above
How it was run: as §1

[27] = system: SCC-9 (Oral Cavity Carcinoma); assay: as above
How it was run: as §1

[28] = system: SNU-C1 (Colorectal Carcinoma); assay: as above
How it was run: as §1

[29] = system: TGBC11TKB (Gastric Carcinoma); assay: as above
How it was run: as §1

[30] = system: VMRC-LCD (Lung Adenocarcinoma); assay: as above
How it was run: as §1
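For Bliss excess, mean over the matrix in this document: after 72 h of two-drug dosing.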

SMILES: C[C@@H]1COCCN1c1cc(C2([S@](C)(=N)=O)CC2)nc(-c2ccnc3[nH]ccc23)n1 [AZD6738] + C1CC(C1)(C(=O)[O-])C(=O)[O-].N.N.[Pt+2] [Carboplatin] (first compound max 10 µM, 7x7, partner max 10 µM)
- Bliss excess (EW-3 (Ewing's Sarcoma) [1]): 0.0061
- Bliss excess (GI-1 (Glioblastoma) [2]): 0.0044
- Bliss excess [3]: -0.0251
- Bliss excess [4]: 0.0029
- Bliss excess [5]: -0.0368
- Bliss excess [6]: -0.0713
- Bliss excess [7]: -0.0504
- Bliss excess (NB7 (Neuroblastoma) [8]): -0.0115
- Bliss excess [9]: -0.0332
- Bliss excess [10]: -0.0165
- Bliss excess [11]: -0.0496
- Bliss excess [12]: -0.0334
- Bliss excess [13]: -0.0744
- Bliss excess [14]: -0.0618
- Bliss excess [15]: -0.0159
- combination Emax (EW-3 (Ewing's Sarcoma) [16]): 0.77
- combination Emax (GI-1 (Glioblastoma) [17]): 0.843
- combination Emax [18]: 0.344
- combination Emax [19]: 0.598
- combination Emax [20]: 0.292
- combination Emax [21]: 0.187
- combination Emax [22]: 0.896
- combination Emax (NB7 (Neuroblastoma) [23]): 0.508
- combination Emax [24]: 0.71
- combination Emax [25]: 0.417
- combination Emax [26]: 0.647
- combination Emax [27]: 0.293
- combination Emax [28]: 0.408
- combination Emax [29]: 0.653
- combination Emax [30]: 0.697

SMILES: C=CCn1c(=O)c2cnc(Nc3ccc(N4CCN(C)CC4)cc3)nc2n1-c1cccc(C(C)(C)O)n1 [AZD1775] + Nc1ccn([C@@H]2O[C@H](CO)[C@@H](O)C2(F)F)c(=O)n1 [Gemcitabine] (first compound max 1 µM, partner max 0.3 µM)
- Bliss excess (EW-3 (Ewing's Sarcoma) [1]): 0.0204
- Bliss excess (GI-1 (Glioblastoma) [2]): 0.0649
- Bliss excess [3]: 0.014
- Bliss excess [4]: 0.0227
- Bliss excess [5]: -0.0298
- Bliss excess [6]: -0.0065
- Bliss excess [7]: 0.0478
- Bliss excess (NB7 (Neuroblastoma) [8]): 0.0441
- Bliss excess [9]: -0.0481
- Bliss excess [10]: 0.0679
- Bliss excess [11]: 0.0616
- Bliss excess [12]: 0.0215
- Bliss excess [13]: -0.0308
- Bliss excess [14]: 0.0011
- Bliss excess [15]: -0.0497
- combination Emax (EW-3 (Ewing's Sarcoma) [16]): 0.904
- combination Emax (GI-1 (Glioblastoma) [17]): 0.916
- combination Emax [18]: 0.649
- combination Emax [19]: 0.947
- combination Emax [20]: 0.399
- combination Emax [21]: 0.341
- combination Emax [22]: 0.945
- combination Emax (NB7 (Neuroblastoma) [23]): 0.721
- combination Emax [24]: 0.735
- combination Emax [25]: 0.955
- combination Emax [26]: 0.656
- combination Emax [27]: 0.375
- combination Emax [28]: 0.485
- combination Emax [29]: 0.918
- combination Emax [30]: 0.6

SMILES: CN(CCO)CC[C@H](CSc1ccccc1)Nc1ccc(S(=O)(=O)NC(=O)c2ccc(N3CCC([C@@H](O)c4ccccc4-c4ccc(Cl)cc4)CC3)cc2)cc1S(=O)(=O)C(F)(F)F [AZD4320] + CS(=O)(=O)CCNCc1ccc(-c2ccc3ncnc(Nc4ccc(OCc5cccc(F)c5)c(Cl)c4)c3c2)o1 [Lapatinib] (first compound max 1 µM, 7x7, partner max 10 µM)
- Bliss excess (EW-3 (Ewing's Sarcoma) [1]): 0.0104
- Bliss excess (GI-1 (Glioblastoma) [2]): 0.0992
- Bliss excess [3]: 0.0321
- Bliss excess [4]: 0.114
- Bliss excess [5]: -0.0153
- Bliss excess [6]: 0.0401
- Bliss excess [7]: 0.0427
- Bliss excess (NB7 (Neuroblastoma) [8]): 0.0034
- Bliss excess [9]: 0.0453
- Bliss excess [11]: 0.0032
- Bliss excess [12]: 0.0105
- Bliss excess [13]: 0.0215
- Bliss excess [14]: 0.0791
- Bliss excess [15]: 0.0981
- combination Emax (EW-3 (Ewing's Sarcoma) [16]): 0.984
- combination Emax (GI-1 (Glioblastoma) [17]): 0.962
- combination Emax [18]: 0.439
- combination Emax [19]: 1
- combination Emax [20]: 0.971
- combination Emax [21]: 0.962
- combination Emax [22]: 1
- combination Emax (NB7 (Neuroblastoma) [23]): 0.189
- combination Emax [24]: 0.982
- combination Emax [25]: 0.887
- combination Emax [26]: 1
- combination Emax [27]: 0.99
- combination Emax [28]: 0.666
- combination Emax [29]: 0.674
- combination Emax [30]: 0.923

SMILES: Cc1c2c(nn1C)CSCc1cc(n(C)n1)CSc1cc(c3ccccc3c1)OCCCc1c(C(=O)O)n(C)c3c-2c(Cl)ccc13 [AZD5991] + CC(=O)O[C@H]1C(=O)[C@@]2(C)[C@H]([C@H](OC(=O)c3ccccc3)[C@]3(O)C[C@H](OC(=O)[C@H](O)[C@@H](NC(=O)c4ccccc4)c4ccccc4)C(C)=C1C3(C)C)[C@]1(OC(C)=O)CO[C@@H]1C[C@@H]2O [Paclitaxel] (first compound max 1 µM, 7x7, partner max 3 µM)
- Bliss excess (EW-3 (Ewing's Sarcoma) [1]): -0.0365
- Bliss excess (GI-1 (Glioblastoma) [2]): -0.0373
- Bliss excess [3]: 0.0049
- Bliss excess [4]: -0.0534
- Bliss excess [5]: -0.0494
- Bliss excess [6]: 0.0134
- Bliss excess [7]: -0.0585
- Bliss excess (NB7 (Neuroblastoma) [8]): 0.0901
- Bliss excess [9]: -0.0041
- Bliss excess [10]: 0.0387
- Bliss excess [11]: 0.027
- Bliss excess [13]: -0.024
- Bliss excess [14]: -0.0368
- combination Emax (EW-3 (Ewing's Sarcoma) [16]): 0.917
- combination Emax (GI-1 (Glioblastoma) [17]): 0.989
- combination Emax [18]: 0.285
- combination Emax [19]: 1
- combination Emax [20]: 0.603
- combination Emax [21]: 0.407
- combination Emax [22]: 0.988
- combination Emax (NB7 (Neuroblastoma) [23]): 0.979
- combination Emax [24]: 0.555
- combination Emax [25]: 1
- combination Emax [26]: 0.321
- combination Emax [27]: 0.614
- combination Emax [28]: 0.545
- combination Emax [29]: 0.957
- combination Emax [30]: 0.864

SMILES: N#Cc1cnc(Nc2cc(NC[C@H]3CNCCO3)c(C(F)(F)F)cn2)cn1 [SRA737] + CCc1c2c(nc3ccc(O)cc13)-c1cc3c(c(=O)n1C2)COC(=O)[C@]3(O)CC [SN-38] (first compound max 10 µM, 7x7, partner max 0.3 µM)
- Bliss excess (EW-3 (Ewing's Sarcoma) [1]): -0.0562
- Bliss excess (GI-1 (Glioblastoma) [2]): 0.0169
- Bliss excess [3]: -0.0264
- Bliss excess [4]: -0.0648
- Bliss excess [5]: 0.0753
- Bliss excess [6]: -0.0051
- Bliss excess [7]: -0.129
- Bliss excess (NB7 (Neuroblastoma) [8]): 0.0757
- Bliss excess [9]: -0.0812
- Bliss excess [10]: 0.231
- Bliss excess [11]: -0.11
- Bliss excess [12]: 0.0297
- Bliss excess [13]: 0.0746
- Bliss excess [14]: 0.0031
- Bliss excess [15]: 0.102
- combination Emax (EW-3 (Ewing's Sarcoma) [16]): 0.865
- combination Emax (GI-1 (Glioblastoma) [17]): 0.973
- combination Emax [18]: 0.544
- combination Emax [19]: 0.96
- combination Emax [20]: 0.616
- combination Emax [21]: 0.362
- combination Emax [22]: 0.941
- combination Emax (NB7 (Neuroblastoma) [23]): 0.952
- combination Emax [24]: 0.732
- combination Emax [25]: 0.935
- combination Emax [26]: 0.695
- combination Emax [27]: 0.518
- combination Emax [28]: 0.748
- combination Emax [30]: 0.812
